Laboratory results published in PubChem BioAssay AID328 (DTP/NCI, 2004).
“And” between values parts separate entries of the source, which are not always exact repeats. Equal entries are not always repeated. Toxic doses and inconclusive results are not listed. The calls were made as follows: active = survival T/C of 150% or more; inactive = T/C below 125% in these data. Residues, ends and D or L forms follow the SMILES beside them. *: point of attachment. Cbz = O=C(OCc1ccccc1)*; Bn = c1ccc(C*)cc1; βAla = NCCC(=O)O

Tested on: BDF1 mice, P388 leukemia ip, median survival T/C
Assay: NCI In Vivo Anticancer Drug Screen. Data for tumor model P388 Leukemia (intraperitoneal) in B6D2F1 (BDF1) mice
Conditions: endpoint: median survival time, higher = longer survival
In short: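 Steps: implant the tumour, treat one group with compound and another with vehicle, record survival, then divide treated by control.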

[1] = dose: 100.0 mg/kg/injection, schedule: Q01DX009 (ip), vehicle: Klucel (hydroxypropylcellulose) (HPC)
[2] = dose: 100.0 mg/kg/injection, schedule: Q01DX009 (ip), vehicle: saline with Tween-80
[3] = dose: 100.0 mg/kg/injection, schedule: Q04DX003 (ip), vehicle: saline with Tween-80
[4] = dose: 200.0 mg/kg/injection, schedule: Q01DX009 (ip), vehicle: saline with Tween-80
[5] = dose: 200.0 mg/kg/injection, schedule: Q04DX003 (ip), vehicle: saline with Tween-80
[6] = dose: 400.0 mg/kg/injection, schedule: Q04DX003 (ip), vehicle: saline with Tween-80
[7] = dose: 100.0 mg/kg/injection, schedule: Q01DX009 (ip), vehicle: saline
[8] = dose: 100.0 mg/kg/injection, schedule: Q04DX003 (ip), vehicle: saline
[9] = dose: 200.0 mg/kg/injection, schedule: Q01DX009 (ip), vehicle: saline
[10] = dose: 200.0 mg/kg/injection, schedule: Q04DX003 (ip), vehicle: saline
[11] = dose: 400.0 mg/kg/injection, schedule: Q04DX003 (ip), vehicle: saline
[12] = dose: 50.0 mg/kg/injection, schedule: Q04DX003 (ip), vehicle: saline with Tween-80
[13] = dose: 50.0 mg/kg/injection, schedule: Q01DX009 (ip), vehicle: saline
[14] = dose: 25.0 mg/kg/injection, schedule: Q01DX009 (ip), vehicle: saline
[15] = dose: 50.0 mg/kg/injection, schedule: Q01DX009 (ip), vehicle: saline with Tween-80
[16] = dose: 50.0 mg/kg/injection, schedule: Q01DX009 (ip), vehicle: Klucel (hydroxypropylcellulose) (HPC)
[17] = dose: 50.0 mg/kg/injection, schedule: Q04DX003 (ip), vehicle: Klucel (hydroxypropylcellulose) (HPC)
[18] = dose: 100.0 mg/kg/injection, schedule: Q04DX003 (ip), vehicle: Klucel (hydroxypropylcellulose) (HPC)
[19] = dose: 200.0 mg/kg/injection, schedule: Q04DX003 (ip), vehicle: Klucel (hydroxypropylcellulose) (HPC)

Measured: T/C

Nc1ccn(C2CC(O)C(CO)O2)c(=O)n1 (centres undefined)
inactive: dose: 2.3 mg/kg/injection, schedule: Q01DX009 (ip), vehicle: water 117 % of control | dose: 9.37 mg/kg/injection, schedule: Q01DX009 (ip), vehicle: water 117 % of control | dose: 18.75 mg/kg/injection, schedule: Q01DX009 (ip), vehicle: water 110 % of control

O=C([CH-]C(=O)C(F)(F)F)c1ccccc1.O=C([CH-]C(=O)C(F)(F)F)c1ccccc1.O=C([CH-]C(=O)C(F)(F)F)c1ccccc1.O=C([CH-]C(=O)C(F)(F)F)c1ccccc1.[Eu+3].c1ccncc1
inactive: [1] 113 % of control

Cc1nc(N)c(=O)[nH]c1C
inactive: [2] 95 % of control | [3] 108 % of control | [4] 90 % of control | [5] 95 % of control | dose: 400.0 mg/kg/injection, schedule: Q01DX009 (ip), vehicle: saline with Tween-80 90 % of control | [6] 91 % of control

Nc1ncccc1C1CCCS1 (centres undefined)
inactive: dose: 50.0 mg/kg/injection, schedule: Q04DX002 (ip), vehicle: saline with Tween-80 104 % of control | dose: 100.0 mg/kg/injection, schedule: Q04DX002 (ip), vehicle: saline with Tween-80 98 % of control | dose: 200.0 mg/kg/injection, schedule: Q04DX002 (ip), vehicle: saline with Tween-80 91 % of control

CC(=O)OCC(C)OC(C)=O (centres undefined)
inactive: [7] 91 % of control | [8] 100 % of control | [9] 112 % of control | [10] 100 % of control | [11] 96 % of control

NC(=O)c1cc(Cl)nc2nc(Cl)nc(N)c12
inactive: [12] 105 % of control | [3] 104 % of control and 109 % of control | [5] 116 % of control and 117 % of control | [6] 116 % of control and 122 % of control

COc1cc(NCCCCC(C)N)c2nccc(C)c2c1 (centres undefined)
inactive: [13] 105 % of control

CCOC(=O)C1=C(C)NC(C)=C(C(=O)OCC)C1c1ccccc1Cl
inactive: dose: 28.75 mg/kg/injection, schedule: Q04DX003 (ip), vehicle: Klucel (hydroxypropylcellulose) (HPC) 95 % of control | dose: 57.5 mg/kg/injection, schedule: Q04DX003 (ip), vehicle: Klucel (hydroxypropylcellulose) (HPC) 104 % of control | dose: 75.0 mg/kg/injection, schedule: Q01DX009 (ip), vehicle: Klucel (hydroxypropylcellulose) (HPC) 90 % of control | dose: 115.0 mg/kg/injection, schedule: Q01DX009 (ip), vehicle: Klucel (hydroxypropylcellulose) (HPC) 86 % of control | dose: 115.0 mg/kg/injection, schedule: Q04DX003 (ip), vehicle: Klucel (hydroxypropylcellulose) (HPC) 100 % of control | dose: 170.0 mg/kg/injection, schedule: Q01DX001 (ip), vehicle: Klucel (hydroxypropylcellulose) (HPC) 100 % of control | dose: 260.0 mg/kg/injection, schedule: Q01DX001 (ip), vehicle: Klucel (hydroxypropylcellulose) (HPC) 100 % of control

Oc1c(Cl)cc(Cl)c2cccnc12
inactive: dose: 12.5 mg/kg/injection, schedule: Q01DX010 (ip), vehicle: carboxymethylcellulose (CMC) 104 % of control | dose: 25.0 mg/kg/injection, schedule: Q01DX010 (ip), vehicle: carboxymethylcellulose (CMC) 104 % of control | dose: 50.0 mg/kg/injection, schedule: Q01DX010 (ip), vehicle: carboxymethylcellulose (CMC) 104 % of control

S=C(S)N1CCN(C(=S)S)CC1
inactive: [14] 100 % of control and 104 % of control and 110 % of control | dose: 35.0 mg/kg/injection, schedule: Q01DX009 (ip), vehicle: saline 91 % of control | [13] 95 % of control and 105 % of control | [7] 95 % of control | [9] 86 % of control

COc1cc2c(cc1OC)C(CNC(=O)/C=C/c1cc(OC)c(OC)c(OC)c1)C2 (centres undefined)
inactive: [15] 98 % of control | [2] 107 % of control | [4] 88 % of control

O=C(Nc1ccc2ncccc2c1)Nc1ccc2ncccc2c1
inactive: [16] 87 % of control | [17] 91 % of control | [1] 95 % of control | [18] 95 % of control | [19] 91 % of control

CC(C(=O)c1ccc(Cl)cc1)C(O)(C(F)(F)F)C(F)(F)F (centres undefined)
inactive: dose: 100.0 mg/kg/injection, schedule: Q01DX001 (ip), vehicle: Klucel (hydroxypropylcellulose) (HPC) 100 % of control | dose: 200.0 mg/kg/injection, schedule: Q01DX001 (ip), vehicle: Klucel (hydroxypropylcellulose) (HPC) 113 % of control | dose: 400.0 mg/kg/injection, schedule: Q01DX001 (ip), vehicle: Klucel (hydroxypropylcellulose) (HPC) 113 % of control

CCS/C(N)=N\N
inactive: dose: 12.5 mg/kg/injection, schedule: Q01DX009 (ip), vehicle: saline 100 % of control | [14] 104 % of control | dose: 25.0 mg/kg/injection, schedule: Q04DX003 (ip), vehicle: saline 109 % of control | dose: 50.0 mg/kg/injection, schedule: Q04DX003 (ip), vehicle: saline 104 % of control

C=CCOC(=O)c1ccccc1N
inactive: [2] 118 % of control | [3] 110 % of control | [4] 118 % of control | [5] 115 % of control | [6] 110 % of control

Cc1nc2ccccc2nc1CC(=O)c1ccccc1
inactive: [15] 112 % of control | [2] 104 % of control | [4] 99 % of control

CCCCCCCCCCNCCS
inactive: dose: 8.0 mg/kg/injection, schedule: Q01DX010 (ip), vehicle: carboxymethylcellulose (CMC) 105 % of control | dose: 16.0 mg/kg/injection, schedule: Q01DX010 (ip), vehicle: carboxymethylcellulose (CMC) 110 % of control | dose: 32.0 mg/kg/injection, schedule: Q01DX010 (ip), vehicle: carboxymethylcellulose (CMC) 105 % of control

COC(=O)C(CSCc1ccccc1)NC(=O)C(CSCc1ccccc1)NC(=O)CCNC(=O)OCc1ccccc1 (centres undefined) ({Cbz-βAla}-Cys(Bn)-Cys(Bn)-OMe; configuration not given here)
inactive: dose: 25.0 mg/kg/injection, schedule: Q04DX003 (ip), vehicle: Klucel (hydroxypropylcellulose) (HPC) 102 % of control | [17] 100 % of control | [18] 95 % of control | [19] 93 % of control | dose: 400.0 mg/kg/injection, schedule: Q04DX003 (ip), vehicle: Klucel (hydroxypropylcellulose) (HPC) 93 % of control

Cc1cc(=O)[nH]c(N/N=C/C(C)C)n1
inactive: dose: 25.0 mg/kg/injection, schedule: Q01DX009 (ip), vehicle: Klucel (hydroxypropylcellulose) (HPC) 92 % of control | [16] 92 % of control | [17] 96 % of control | [1] 100 % of control | [18] 88 % of control | [19] 88 % of control

O=C(NC(=O)c1c(F)cccc1F)Nc1nc2ccccc2s1
inactive: dose: 25.0 mg/kg/injection, schedule: Q01DX009 (ip), vehicle: saline with Tween-80 93 % of control | [2] 93 % of control

CCOC(=O)CCN1CC(C)OC(C)C1 (centres undefined)
inactive: [7] 100 % of control | [9] 109 % of control | dose: 400.0 mg/kg/injection, schedule: Q01DX009 (ip), vehicle: saline 100 % of control

O=C(O)/C(=C\c1ccccc1Br)c1ccc(C(F)(F)F)cc1[N+](=O)[O-]
inactive: dose: 75.0 mg/kg/injection, schedule: Q01DX001 (ip), vehicle: saline with Tween-80 100 % of control | dose: 150.0 mg/kg/injection, schedule: Q01DX001 (ip), vehicle: saline with Tween-80 95 % of control | dose: 300.0 mg/kg/injection, schedule: Q01DX001 (ip), vehicle: saline with Tween-80 100 % of control

O=C1c2cc([N+](=O)[O-])ccc2-c2cc(Cl)c(Cl)cc21
inactive: dose: 50.0 mg/kg/injection, schedule: Q01DX001 (ip), vehicle: saline sonified 86 % of control | dose: 100.0 mg/kg/injection, schedule: Q01DX001 (ip), vehicle: saline sonified 100 % of control | dose: 200.0 mg/kg/injection, schedule: Q01DX001 (ip), vehicle: saline sonified 90 % of control

C1=CCONC1
inactive: [12] 99 % of control | [3] 104 % of control | [8] 103 % of control | [5] 100 % of control | [10] 120 % of control | [11] 93 % of control

CC(C#N)(Nc1ccccc1)c1ccc(Br)cc1 (centres undefined)
inactive: dose: 100.0 mg/kg/injection, schedule: Q04DX003 (ip), vehicle: saline sonified 104 % of control | dose: 200.0 mg/kg/injection, schedule: Q04DX003 (ip), vehicle: saline sonified 95 % of control | dose: 400.0 mg/kg/injection, schedule: Q04DX003 (ip), vehicle: saline sonified 95 % of control

CC(=O)CC(=O)Nc1ccc([N+](=O)[O-])cc1
inactive: [12] 109 % of control | [3] 109 % of control | [5] 95 % of control | [6] 100 % of control
